Assay results reported in patent US6479435B1, “Diaryl ethers and processes for their preparation and herbicidal and desiccant compositions containing them” (ISK Americas Incorporated, priority 1997, dated 2002).

Tests used:
Format in all cases: in vivo
[1] = system: Johnsongrass (Sorghum halepense, SORHA); assay: Pre-emerge greenhouse herbicide test, phytotoxicity rating; details: 14 days after application, rating scale 0-100
How it was run: (§1)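 Seeds sown in sandy loam one day before track-sprayer application of acetone solutions at 125–1000 g ai/ha (187 l/ha), then surface-watered to incorporate and bottom-watered. Injury scored visually at 14 days on a 0–100 scale (0 no damage, 100 complete death).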

[2] = system: barnyardgrass (Echinochloa crusgalli, ECHCG); assay: as above; details: 14 days after application, rating scale 0-100
How it was run: as §1

[3] = system: common ragweed (Ambrosia artemisiifolia L., AMBEL); assay: as above; details: 14 days after application, rating scale 0-100
How it was run: as §1

[4] = system: green foxtail (Setaria viridis, SETVI); assay: as above; details: 14 days after application, rating scale 0-100
How it was run: as §1

[5] = system: ivyleaf morningglory (Ipomoea hederacea, IPOHE); assay: as above; details: 14 days after application, rating scale 0-100
How it was run: as §1

[6] = system: lambsquarters (Chenopodium album, CHEAL); assay: as above; details: 14 days after application, rating scale 0-100
How it was run: as §1

[7] = system: large crabgrass (Digitaria sanguinalis, DIGSA); assay: as above; details: 14 days after application, rating scale 0-100
How it was run: as §1

[8] = system: redroot pigweed (Amaranthus retroflexus, AMARE); assay: as above; details: 14 days after application, rating scale 0-100
How it was run: as §1

[9] = system: sicklepod (Cassia obtusifolia, CASOB); assay: as above; details: 14 days after application, rating scale 0-100
How it was run: as §1

[10] = system: velvetleaf (Abutilon theophrasti, ABUTH); assay: as above; details: 14 days after application, rating scale 0-100
How it was run: as §1

[11] = system: field corn (Zea mays L., var. Dekalb 535, CORN); assay: Pre-emerge greenhouse test, crop damage rating; details: 14 days after application, rating scale 0-100
How it was run: as §1

[12] = system: upland rice (Oryza sp., var.Tebonnet, RICE); assay: Pre-emerge greenhouse test, crop damage rating; details: 14 days after application, rating scale 0-100
How it was run: as §1

[13] = system: soybean (Glycine max L., var. Pella 86, SOY); assay: Pre-emerge greenhouse test, crop damage rating; design: key to SOY crop damage rating: 0 = no damage, 100 = complete death of all plants; details: 14 days after application, rating scale 0-100
How it was run: as §1

[14] = system: common ragweed (Ambrosia artemisiifolia L., AMBEL); assay: Post-emerge greenhouse herbicide test, phytotoxicity rating; details: 14 days after application, scale 0-100
How it was run: (§2)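 Plants at the 2-3 leaf stage, sown 8-21 days earlier, were track-sprayed post-emergence with compound in acetone plus 0.25% v/v non-ionic surfactant at 63-1000 g ai/ha (187 l/ha). Damage was rated at 14 days on a 0-100 scale (0 none, 100 all plants dead), for both crop injury and weed control.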

[15] = system: Johnsongrass (Sorghum halepense, SORHA); assay: as above; details: 14 days after application, scale 0-100
How it was run: as §2

[16] = system: barnyardgrass (Echinochloa crusgalli, ECHCG); assay: as above; details: 14 days after application, scale 0-100
How it was run: as §2

[17] = system: green foxtail (Setaria viridis, SETVI); assay: as above; details: 14 days after application, scale 0-100
How it was run: as §2

[18] = system: ivyleaf morningglory (Ipomoea hederacea, IPOHE); assay: as above; details: 14 days after application, scale 0-100
How it was run: as §2

[19] = system: lambsquarters (Chenopodium album, CHEAL); assay: as above; details: 14 days after application, scale 0-100
How it was run: as §2

[20] = system: large crabgrass (Digitaria sanguinalis, DIGSA); assay: as above; details: 14 days after application, scale 0-100
How it was run: as §2

[21] = system: redroot pigweed (Amaranthus retroflexus, AMARE); assay: as above; details: 14 days after application, scale 0-100
How it was run: as §2

[22] = system: sicklepod (Cassia obtusifolia, CASOB); assay: as above; details: 14 days after application, scale 0-100
How it was run: as §2

[23] = system: velvetleaf (Abutilon theophrasti, ABUTH); assay: as above; details: 14 days after application, scale 0-100
How it was run: as §2

[24] = system: field corn (Zea mays L., var. Dekalb 535, CORN); assay: Post-emerge greenhouse test, crop damage rating; details: 14 days after application, scale 0-100
How it was run: as §2

[25] = system: upland rice (Oryza sp., var.Tebonnet, RICE); assay: Post-emerge greenhouse test, crop damage rating; details: 14 days after application, scale 0-100
How it was run: as §2

[26] = system: soybean (Glycine max L., var. Pella 86, SOY); assay: Post-emerge greenhouse test, crop damage rating; design: key to crop damage rating SOY: 0-100 scale: 0 = no damage, 100 = complete death of all plants; details: 14 days after application, scale 0-100
How it was run: as §2

O=c1n(-c2cc(Oc3ncccc3[N+](=O)[O-])c(Cl)cc2F)c(=S)n2n1CCCC2 [Compound 8-19]
80: SORHA phytotoxicity rating ([1]; Rate 125 g al/ha) | RICE crop damage rating ([12]; Rate 500 g al/ha)
30: DIGSA phytotoxicity rating ([7]; Rate 125 g al/ha) | CORN crop damage rating ([11]; Rate 500 g al/ha) | phytotoxicity rating DIGSA ([20]; rate 63 g ai/ha) | phytotoxicity rating DIGSA ([20]; rate 500 g ai/ha) | crop damage rating CORN ([24]; rate 63 g ai/ha) | crop damage rating CORN ([24]; rate 500 g ai/ha)
0: SOY crop damage rating ([13]; Rate 500 g al/ha)
70: phytotoxicity rating CASOB ([22]; rate 63 g ai/ha)
50: ECHCG phytotoxicity rating ([2]; Rate 125 g al/ha) | AMBEL phytotoxicity rating ([3]; Rate 125 g al/ha) | RICE crop damage rating ([12]; Rate 125 g al/ha) | phytotoxicity rating SORHA ([15]; rate 63 g ai/ha) | phytotoxicity rating SORHA ([15]; rate 500 g ai/ha) | phytotoxicity rating ECHCG ([16]; rate 63 g ai/ha) | phytotoxicity rating ECHCG ([16]; rate 500 g ai/ha) | crop damage rating SOY ([26]; rate 500 g ai/ha)
60: phytotoxicity rating SETVI ([17]; rate 63 g ai/ha) | crop damage rating RICE ([25]; rate 500 g ai/ha)
40: IPOHE phytotoxicity rating ([5]; Rate 125 g al/ha) | crop damage rating RICE ([25]; rate 63 g ai/ha)
100: AMBEL phytotoxicity rating ([3]; Rate 500 g al/ha) | SETVI phytotoxicity rating ([4]; Rate 125 g al/ha) | SETVI phytotoxicity rating ([4]; Rate 500 g al/ha) | CHEAL phytotoxicity rating ([6]; Rate 125 g al/ha) | CHEAL phytotoxicity rating ([6]; Rate 500 g al/ha) | DIGSA phytotoxicity rating ([7]; Rate 500 g al/ha) | AMARE phytotoxicity rating ([8]; Rate 125 g al/ha) | AMARE phytotoxicity rating ([8]; Rate 500 g al/ha) | CASOB phytotoxicity rating ([9]; Rate 500 g al/ha) | ABUTH phytotoxicity rating ([10]; Rate 125 g al/ha) | ABUTH phytotoxicity rating ([10]; Rate 500 g al/ha) | phytotoxicity rating IPOHE ([18]; rate 63 g ai/ha) | phytotoxicity rating IPOHE ([18]; rate 500 g ai/ha) | phytotoxicity rating CHEAL ([19]; rate 63 g ai/ha) | phytotoxicity rating CHEAL ([19]; rate 500 g ai/ha) | phytotoxicity rating AMARE ([21]; rate 63 g ai/ha) | phytotoxicity rating AMARE ([21]; rate 500 g ai/ha) | phytotoxicity rating ABUTH ([23]; rate 63 g ai/ha) | phytotoxicity rating ABUTH ([23]; rate 500 g ai/ha)
15: CORN crop damage rating ([11]; Rate 125 g al/ha)
90: IPOHE phytotoxicity rating ([5]; Rate 500 g al/ha) | phytotoxicity rating AMBEL ([14]; rate 63 g ai/ha) | phytotoxicity rating AMBEL ([14]; rate 500 g ai/ha) | phytotoxicity rating SETVI ([17]; rate 500 g ai/ha) | phytotoxicity rating CASOB ([22]; rate 500 g ai/ha)
65: crop damage rating SOY ([26]; rate 63 g ai/ha)
20: CASOB phytotoxicity rating ([9]; Rate 125 g al/ha) | SOY crop damage rating ([13]; Rate 125 g al/ha)
95: SORHA phytotoxicity rating ([1]; Rate 500 g al/ha) | ECHCG phytotoxicity rating ([2]; Rate 500 g al/ha)
